# In ChEMBL document CHEMBL1909046, “DrugMatrix in vitro pharmacology data”:
# Target: Beta-1 adrenergic receptor (Homo sapiens, UniProt P08588)
# Assay: DRUGMATRIX: Adrenergic beta1 radioligand binding (ligand: [125I] Cyanopindolol)
# Assay type: cell membranes, CHO-K1, Membrane
# Conditions: cho-k1; Not Active = under 50% inhibition at 10 µM
# Beta-1 adrenergic receptor, sequence (P08588 whole entry): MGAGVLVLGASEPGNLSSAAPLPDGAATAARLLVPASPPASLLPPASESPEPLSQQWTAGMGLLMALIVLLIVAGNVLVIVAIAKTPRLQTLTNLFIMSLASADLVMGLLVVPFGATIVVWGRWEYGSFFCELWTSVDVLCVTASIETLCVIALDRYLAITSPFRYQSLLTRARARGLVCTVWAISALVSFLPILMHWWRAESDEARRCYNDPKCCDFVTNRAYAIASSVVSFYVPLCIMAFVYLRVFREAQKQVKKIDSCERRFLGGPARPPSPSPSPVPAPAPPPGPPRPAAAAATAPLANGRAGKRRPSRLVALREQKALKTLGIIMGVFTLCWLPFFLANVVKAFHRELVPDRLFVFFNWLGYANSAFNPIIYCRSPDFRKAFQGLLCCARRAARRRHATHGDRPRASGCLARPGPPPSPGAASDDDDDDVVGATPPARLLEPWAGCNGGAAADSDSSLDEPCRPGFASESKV
row,Structure (SMILES),IC50
1,CC1(C)O[C@@H]2C[C@H]3[C@@H]4C[C@H](F)C5=CC(=O)CC[C@]5(C)[C@H]4[C@@H](O)C[C@]3(C)[C@]2(C(=O)CO)O1 [FLURANDRENOLIDE],Not Active
2,Cc1ccc(S(=O)(=O)NC(=O)NN2CC3CCCC3C2)cc1 (stereo not given) [GLICLAZIDE],Not Active
3,NC(=O)NO [HYDROXYUREA],Not Active
4,CC(C)Cc1ccc(C(C)C(=O)O)cc1 (stereo not given) [IBUPROFEN],Not Active
5,COc1ccc2c(c1)c(CC(=O)O)c(C)n2C(=O)c1ccc(Cl)cc1 [INDOMETHACIN],Not Active
6,CCc1c2c(nc3ccc(OC(=O)N4CCC(N5CCCCC5)CC4)cc13)-c1cc3c(c(=O)n1C2)COC(=O)[C@]3(O)CC [IRINOTECAN],Not Active
7,CC(C(=O)O)c1cccc(C(=O)c2ccccc2)c1 (stereo not given) [KETOPROFEN],Not Active
8,Nc1ccn([C@@H]2CS[C@H](CO)O2)c(=O)n1 [LAMIVUDINE],Not Active
9,O=S(=O)([O-])CCS.[Na+] [MESNA],Not Active
10,C#C[C@]1(O)CC[C@H]2[C@@H]3CCc4cc(OC)ccc4[C@H]3CC[C@@]21C [MESTRANOL],Not Active

# Tested on: not listed separately
# Assay: DRUGMATRIX: ATPase, Na+/K+ enzyme inhibition (substrate: ATP)
# Assay type: tissue-based, Sus scrofa, Heart
# Conditions: Not Active = under 50% inhibition at 10 µM
Structure (SMILES),IC50,Ki
CC1(C)O[C@@H]2C[C@H]3[C@@H]4C[C@H](F)C5=CC(=O)CC[C@]5(C)[C@H]4[C@@H](O)C[C@]3(C)[C@]2(C(=O)CO)O1 [FLURANDRENOLIDE],Not Active,Not Active
Cc1ccc(S(=O)(=O)NC(=O)NN2CC3CCCC3C2)cc1 (stereo not given) [GLICLAZIDE],Not Active,Not Active
NC(=O)NO [HYDROXYUREA],Not Active,Not Active
CC(C)Cc1ccc(C(C)C(=O)O)cc1 (stereo not given) [IBUPROFEN],Not Active,Not Active
COc1ccc2c(c1)c(CC(=O)O)c(C)n2C(=O)c1ccc(Cl)cc1 [INDOMETHACIN],Not Active,Not Active
CCc1c2c(nc3ccc(OC(=O)N4CCC(N5CCCCC5)CC4)cc13)-c1cc3c(c(=O)n1C2)COC(=O)[C@]3(O)CC [IRINOTECAN],Not Active,Not Active
CC(C(=O)O)c1cccc(C(=O)c2ccccc2)c1 (stereo not given) [KETOPROFEN],Not Active,Not Active
Nc1ccn([C@@H]2CS[C@H](CO)O2)c(=O)n1 [LAMIVUDINE],Not Active,Not Active
O=S(=O)([O-])CCS.[Na+] [MESNA],Not Active,Not Active
C#C[C@]1(O)CC[C@H]2[C@@H]3CCc4cc(OC)ccc4[C@H]3CC[C@@]21C [MESTRANOL],Not Active,Not Active

# Target: 5-hydroxytryptamine receptor 4 (Cavia porcellus, UniProt O70528); also: in other assays of this panel Not Active means under 50% inhibition at 10 µM
# Assay type: cell membranes, Dunkin-Hartley, Striatum, Membrane
# Conditions: not given
# 5-hydroxytryptamine receptor 4, sequence (O70528 whole entry): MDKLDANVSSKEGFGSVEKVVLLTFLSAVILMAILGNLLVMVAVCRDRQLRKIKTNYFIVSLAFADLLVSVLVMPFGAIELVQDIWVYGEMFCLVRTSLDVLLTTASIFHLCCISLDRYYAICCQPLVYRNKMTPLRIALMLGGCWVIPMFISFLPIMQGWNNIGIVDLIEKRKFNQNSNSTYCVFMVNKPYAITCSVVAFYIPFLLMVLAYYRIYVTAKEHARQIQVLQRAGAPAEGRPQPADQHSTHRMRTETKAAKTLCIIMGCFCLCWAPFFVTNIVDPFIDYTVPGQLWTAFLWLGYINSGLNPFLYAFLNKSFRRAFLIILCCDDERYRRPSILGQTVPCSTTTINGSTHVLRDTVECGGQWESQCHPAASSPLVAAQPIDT
row,Structure (SMILES),IC50
1,CC1(C)O[C@@H]2C[C@H]3[C@@H]4C[C@H](F)C5=CC(=O)CC[C@]5(C)[C@H]4[C@@H](O)C[C@]3(C)[C@]2(C(=O)CO)O1 [FLURANDRENOLIDE],Not Active
2,Cc1ccc(S(=O)(=O)NC(=O)NN2CC3CCCC3C2)cc1 (stereo not given) [GLICLAZIDE],Not Active
3,NC(=O)NO [HYDROXYUREA],Not Active
4,CC(C)Cc1ccc(C(C)C(=O)O)cc1 (stereo not given) [IBUPROFEN],Not Active
5,COc1ccc2c(c1)c(CC(=O)O)c(C)n2C(=O)c1ccc(Cl)cc1 [INDOMETHACIN],Not Active
6,CCc1c2c(nc3ccc(OC(=O)N4CCC(N5CCCCC5)CC4)cc13)-c1cc3c(c(=O)n1C2)COC(=O)[C@]3(O)CC [IRINOTECAN],Not Active
7,CC(C(=O)O)c1cccc(C(=O)c2ccccc2)c1 (stereo not given) [KETOPROFEN],Not Active
8,Nc1ccn([C@@H]2CS[C@H](CO)O2)c(=O)n1 [LAMIVUDINE],Not Active
9,O=S(=O)([O-])CCS.[Na+] [MESNA],Not Active
10,C#C[C@]1(O)CC[C@H]2[C@@H]3CCc4cc(OC)ccc4[C@H]3CC[C@@]21C [MESTRANOL],Not Active

# Target: Melanocortin receptor 5 (Homo sapiens, UniProt P33032); also: in other assays of this panel Not Active means under 50% inhibition at 10 µM
# Assay type: cell membranes, Membrane
# Conditions: hek293
# Melanocortin receptor 5, sequence (P33032 whole entry): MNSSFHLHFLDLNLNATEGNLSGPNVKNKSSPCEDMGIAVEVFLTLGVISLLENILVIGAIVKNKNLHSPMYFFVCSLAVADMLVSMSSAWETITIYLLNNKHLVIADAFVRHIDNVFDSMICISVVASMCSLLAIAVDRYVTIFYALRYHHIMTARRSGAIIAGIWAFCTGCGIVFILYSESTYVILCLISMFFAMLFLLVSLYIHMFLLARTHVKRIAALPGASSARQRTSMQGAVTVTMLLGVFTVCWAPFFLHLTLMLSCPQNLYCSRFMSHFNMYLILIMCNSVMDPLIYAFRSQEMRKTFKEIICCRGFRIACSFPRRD
row,Structure (SMILES),IC50
1,CC1(C)O[C@@H]2C[C@H]3[C@@H]4C[C@H](F)C5=CC(=O)CC[C@]5(C)[C@H]4[C@@H](O)C[C@]3(C)[C@]2(C(=O)CO)O1 [FLURANDRENOLIDE],Not Active
2,Cc1ccc(S(=O)(=O)NC(=O)NN2CC3CCCC3C2)cc1 (stereo not given) [GLICLAZIDE],Not Active
3,NC(=O)NO [HYDROXYUREA],Not Active
4,CC(C)Cc1ccc(C(C)C(=O)O)cc1 (stereo not given) [IBUPROFEN],Not Active
5,COc1ccc2c(c1)c(CC(=O)O)c(C)n2C(=O)c1ccc(Cl)cc1 [INDOMETHACIN],Not Active
6,CCc1c2c(nc3ccc(OC(=O)N4CCC(N5CCCCC5)CC4)cc13)-c1cc3c(c(=O)n1C2)COC(=O)[C@]3(O)CC [IRINOTECAN],Not Active
7,CC(C(=O)O)c1cccc(C(=O)c2ccccc2)c1 (stereo not given) [KETOPROFEN],Not Active
8,Nc1ccn([C@@H]2CS[C@H](CO)O2)c(=O)n1 [LAMIVUDINE],Not Active
9,O=S(=O)([O-])CCS.[Na+] [MESNA],Not Active
10,C#C[C@]1(O)CC[C@H]2[C@@H]3CCc4cc(OC)ccc4[C@H]3CC[C@@]21C [MESTRANOL],Not Active

# Target: T1, Neuropeptide Y receptor type 1 (Homo sapiens, UniProt P25929); also: in other assays of this panel Not Active means under 50% inhibition at 10 µM
# T1 sequence (P25929 whole entry): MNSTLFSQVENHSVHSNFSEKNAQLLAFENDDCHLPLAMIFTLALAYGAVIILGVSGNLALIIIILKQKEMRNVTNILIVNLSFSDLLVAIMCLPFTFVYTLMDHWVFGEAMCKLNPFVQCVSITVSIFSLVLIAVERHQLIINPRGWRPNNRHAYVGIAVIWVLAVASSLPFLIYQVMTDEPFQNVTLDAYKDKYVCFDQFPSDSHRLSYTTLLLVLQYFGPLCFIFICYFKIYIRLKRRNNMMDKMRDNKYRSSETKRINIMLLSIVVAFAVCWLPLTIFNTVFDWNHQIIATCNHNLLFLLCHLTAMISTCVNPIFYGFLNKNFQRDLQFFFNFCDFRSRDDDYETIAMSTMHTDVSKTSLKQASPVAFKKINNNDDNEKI
# Assay type: cell membranes, Membrane
# Conditions: sk-n-mc
row,Structure (SMILES),IC50
1,CC1(C)O[C@@H]2C[C@H]3[C@@H]4C[C@H](F)C5=CC(=O)CC[C@]5(C)[C@H]4[C@@H](O)C[C@]3(C)[C@]2(C(=O)CO)O1 [FLURANDRENOLIDE],Not Active
2,Cc1ccc(S(=O)(=O)NC(=O)NN2CC3CCCC3C2)cc1 (stereo not given) [GLICLAZIDE],Not Active
3,NC(=O)NO [HYDROXYUREA],Not Active
4,CC(C)Cc1ccc(C(C)C(=O)O)cc1 (stereo not given) [IBUPROFEN],Not Active
5,COc1ccc2c(c1)c(CC(=O)O)c(C)n2C(=O)c1ccc(Cl)cc1 [INDOMETHACIN],Not Active
6,CCc1c2c(nc3ccc(OC(=O)N4CCC(N5CCCCC5)CC4)cc13)-c1cc3c(c(=O)n1C2)COC(=O)[C@]3(O)CC [IRINOTECAN],Not Active
7,CC(C(=O)O)c1cccc(C(=O)c2ccccc2)c1 (stereo not given) [KETOPROFEN],Not Active
8,Nc1ccn([C@@H]2CS[C@H](CO)O2)c(=O)n1 [LAMIVUDINE],Not Active
9,O=S(=O)([O-])CCS.[Na+] [MESNA],Not Active
10,C#C[C@]1(O)CC[C@H]2[C@@H]3CCc4cc(OC)ccc4[C@H]3CC[C@@]21C [MESTRANOL],Not Active

# Target: Tyrosine-protein kinase Lck (Homo sapiens, UniProt P06239)
# Assay: DRUGMATRIX: Protein Tyrosine Kinase, LCK enzyme inhibition (substrate: Poly(Glu:Tyr))
# Assay type: cell-based, Insect cells
# Conditions: insect cells; Not Active = under 50% inhibition at 10 µM
# Tyrosine-protein kinase Lck, sequence (P06239 whole entry): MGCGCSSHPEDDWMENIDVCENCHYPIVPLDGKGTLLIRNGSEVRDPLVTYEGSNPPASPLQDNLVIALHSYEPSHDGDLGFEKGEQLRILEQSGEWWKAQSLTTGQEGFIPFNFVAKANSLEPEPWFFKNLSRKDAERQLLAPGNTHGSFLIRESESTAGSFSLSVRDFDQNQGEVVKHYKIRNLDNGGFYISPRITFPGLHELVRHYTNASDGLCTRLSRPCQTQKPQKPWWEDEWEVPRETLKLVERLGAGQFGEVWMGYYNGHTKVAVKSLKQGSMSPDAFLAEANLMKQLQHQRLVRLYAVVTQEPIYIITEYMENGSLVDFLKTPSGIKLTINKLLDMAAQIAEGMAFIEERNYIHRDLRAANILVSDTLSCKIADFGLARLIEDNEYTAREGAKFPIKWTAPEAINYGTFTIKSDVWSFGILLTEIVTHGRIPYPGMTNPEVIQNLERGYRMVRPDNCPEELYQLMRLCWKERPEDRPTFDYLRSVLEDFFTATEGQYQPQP
row,Structure (SMILES),IC50
1,CC1(C)O[C@@H]2C[C@H]3[C@@H]4C[C@H](F)C5=CC(=O)CC[C@]5(C)[C@H]4[C@@H](O)C[C@]3(C)[C@]2(C(=O)CO)O1 [FLURANDRENOLIDE],Not Active
2,Cc1ccc(S(=O)(=O)NC(=O)NN2CC3CCCC3C2)cc1 (stereo not given) [GLICLAZIDE],Not Active
3,NC(=O)NO [HYDROXYUREA],Not Active
4,CC(C)Cc1ccc(C(C)C(=O)O)cc1 (stereo not given) [IBUPROFEN],Not Active
5,COc1ccc2c(c1)c(CC(=O)O)c(C)n2C(=O)c1ccc(Cl)cc1 [INDOMETHACIN],Not Active
6,CCc1c2c(nc3ccc(OC(=O)N4CCC(N5CCCCC5)CC4)cc13)-c1cc3c(c(=O)n1C2)COC(=O)[C@]3(O)CC [IRINOTECAN],Not Active
7,CC(C(=O)O)c1cccc(C(=O)c2ccccc2)c1 (stereo not given) [KETOPROFEN],Not Active
8,Nc1ccn([C@@H]2CS[C@H](CO)O2)c(=O)n1 [LAMIVUDINE],Not Active
9,O=S(=O)([O-])CCS.[Na+] [MESNA],Not Active
10,C#C[C@]1(O)CC[C@H]2[C@@H]3CCc4cc(OC)ccc4[C@H]3CC[C@@]21C [MESTRANOL],Not Active

# Target: T2, Adenosine receptor A1 (Homo sapiens, UniProt P30542);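 also: radioligand binding assay at the adenosine A1 receptor, with DPCPX serving as the labelled ligand; in other assays of this panel Not Active means under 50% inhibition at 10 µM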
# T2 sequence (P30542 whole entry): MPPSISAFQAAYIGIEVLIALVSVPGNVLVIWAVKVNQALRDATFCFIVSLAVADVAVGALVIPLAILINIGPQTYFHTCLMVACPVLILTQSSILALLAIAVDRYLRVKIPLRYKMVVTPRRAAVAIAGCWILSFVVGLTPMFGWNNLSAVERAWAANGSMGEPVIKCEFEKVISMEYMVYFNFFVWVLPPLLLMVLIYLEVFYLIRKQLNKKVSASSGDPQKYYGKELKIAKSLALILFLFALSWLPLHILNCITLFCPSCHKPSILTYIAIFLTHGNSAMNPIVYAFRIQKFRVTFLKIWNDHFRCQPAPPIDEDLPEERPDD
# Assay type: cell membranes, Membrane
# Conditions: cho
row,Structure (SMILES),IC50
1,CC1(C)O[C@@H]2C[C@H]3[C@@H]4C[C@H](F)C5=CC(=O)CC[C@]5(C)[C@H]4[C@@H](O)C[C@]3(C)[C@]2(C(=O)CO)O1 [FLURANDRENOLIDE],Not Active
2,Cc1ccc(S(=O)(=O)NC(=O)NN2CC3CCCC3C2)cc1 (stereo not given) [GLICLAZIDE],Not Active
3,NC(=O)NO [HYDROXYUREA],Not Active
4,CC(C)Cc1ccc(C(C)C(=O)O)cc1 (stereo not given) [IBUPROFEN],Not Active
5,COc1ccc2c(c1)c(CC(=O)O)c(C)n2C(=O)c1ccc(Cl)cc1 [INDOMETHACIN],Not Active
6,CCc1c2c(nc3ccc(OC(=O)N4CCC(N5CCCCC5)CC4)cc13)-c1cc3c(c(=O)n1C2)COC(=O)[C@]3(O)CC [IRINOTECAN],Not Active
7,CC(C(=O)O)c1cccc(C(=O)c2ccccc2)c1 (stereo not given) [KETOPROFEN],Not Active
8,Nc1ccn([C@@H]2CS[C@H](CO)O2)c(=O)n1 [LAMIVUDINE],Not Active
9,O=S(=O)([O-])CCS.[Na+] [MESNA],Not Active
10,C#C[C@]1(O)CC[C@H]2[C@@H]3CCc4cc(OC)ccc4[C@H]3CC[C@@]21C [MESTRANOL],Not Active
